Test results taken from patent publication US8796313B2, “Substituted dihydroisoindolones as allosteric modulators of glucokinase” (Janssen Pharmaceutica N.V., priority 2005, dated 2014).

Biological target: T1, human pancreas Glucokinase (GK) (Homo sapiens, UniProt P35557)
T1 construct: His6; made in house; host or cells: Escherichia coli
T1 sequence (P35557 1-465): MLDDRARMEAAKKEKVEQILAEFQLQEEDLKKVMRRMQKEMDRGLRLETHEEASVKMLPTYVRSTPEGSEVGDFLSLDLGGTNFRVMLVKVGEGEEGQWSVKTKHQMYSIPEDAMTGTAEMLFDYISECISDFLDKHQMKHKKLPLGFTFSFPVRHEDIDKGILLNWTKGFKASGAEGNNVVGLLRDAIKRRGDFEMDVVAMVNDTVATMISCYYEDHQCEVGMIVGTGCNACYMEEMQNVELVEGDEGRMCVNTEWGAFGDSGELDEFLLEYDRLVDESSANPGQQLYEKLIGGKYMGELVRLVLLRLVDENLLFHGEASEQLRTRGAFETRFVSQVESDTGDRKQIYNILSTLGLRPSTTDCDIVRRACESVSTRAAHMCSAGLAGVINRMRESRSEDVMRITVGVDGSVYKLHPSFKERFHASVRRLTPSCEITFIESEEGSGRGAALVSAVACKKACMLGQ
Test: Glucokinase enzyme assay, pancreas GK
Assay type: biochemical
Settings: for activation at 50 µM: increase in GK activity above vehicle control, compound 50 μM, 12 mM glucose; for EC50: concentration that produces 50% activation above vehicle control; for EC100%: concentration that produces 100% activation above vehicle control
From the text: An enzymatic Glucokinase (GK) assay using purified recombinant human liver/pancreas enzyme was used to evaluate the effects of potential small molecule modulators.
In this assay, GK catalyzes glucose phosphorylation in the presence of ATP. The product of this reaction, glucose-6-phosphate, was then oxidized by an excess of glucose-6-phosphate dehydrogenase to produce gluconate-6-phosphate with concomitant reduction of nicotinamide adenine dinucleotide (NAD). […] Human GK (Liver/Pancreas) was expressed in Escherichia coli as a (His) 6-tagged fusion protein and was purified by metal chelate affinity chromatography. The assay was performed in a final incubation volume of 80 μl in a 96-well clear low UV absorption plates. The incubation mixture consisted of 25 mM HEPES, 2 mM MgSO4, 1 mM dithiothreotol (DTT), 1 mg/mL bovine serum albumin (BSA), 1 mM ATP, 1 mM NAD, and 12 mM glucose, 10 units per mL glucose-6-phosphate dehydrogenase, and +/−300 ng per mL GK. For determination of the affinity (Km) and Vmax, different concentrations of glucose ranging from 0.5 mM to 40 mM were used in the assay; see Grimsby, J., Sarabu, R.; Grippo, J. F.; et. al. Science 2003, 301, 370-373. […] EC50% (μM) was calculated as the effective concentration of the compound that produces 50% activation above the vehicle control, and EC100% (μM) was calculated as the effective concentration of the compound that produces 100% activation above the vehicle control.

SMILES	activation at 50 µM [%]	EC50 [µM]	EC100% [µM]	% Activation @ 5 μM (cell states @ 5 μM instead of the head's 50 μM)
COc1ccc(CN2C(=O)c3ccccc3C2CNC(=O)Nc2ccccn2)cc1 (centres unmarked) [Compound 24, 1-[2-(4-Methoxy-benzyl)-3-oxo-2,3-dihydro-1H-isoindol-1-ylmethyl]-3-pyridin-2-yl-urea]	4.39			
O=C(CCC1c2c(F)cccc2C(=O)N1Cc1ccc(F)cc1)Nc1ccc(F)cn1 (centres unmarked) [Compound 14, 3-[7-Fluoro-2-(4-fluoro-benzyl)-3-oxo-2,3-dihydro-1H-isoindol-1-yl]-N-(5-fluoro-pyridin-2-yl)-propionamide]	219	0.108	0.699	
COc1ccc(CN2C(=O)c3ccccc3C2CCS(=O)(=O)Nc2nccs2)cc1 (centres unmarked) [Compound 10, 2-[2-(4-Methoxy-benzyl)-3-oxo-2,3-dihydro-1H-isoindol-1-yl]-ethanesulfonic acid thiazol-2-ylamide]	15.8			
O=C(CCC1c2c(F)cccc2C(=O)N1Cc1ccc(F)cc1)Nc1ccccn1 (centres unmarked) [Compound 12, 3-[7-Fluoro-2-(4-fluoro-benzyl)-3-oxo-2,3-dihydro-1H-isoindol-1-yl]-N-pyridin-2-vi-propionamide]	179	0.094	0.74	
O=C(CCC1c2c(F)ccc(F)c2C(=O)N1Cc1ccc(F)cc1)Nc1ccc(C(F)(F)F)cn1 (centres unmarked) [Compound 18, 3-[4,7-Difluoro-2-(4-fluoro-benzyl)-3-oxo-2,3-dihydro-1H-isoindol-1-yl]-N-(5-trifluoromethyl-pyridin-2-yl)-propionamide]	95	2	46	
CCOC(=O)c1csc(NC(=O)CCC2c3c(F)ccc(F)c3C(=O)N2Cc2ccc(F)cc2)n1 (centres unmarked) [Compound 21, 2-{3-[4,7-Difluoro-2-(4-fluoro-benzyl)-3-oxo-2,3-dihydro-1H-isoindol-1-yl]-propionylamino}thiazole-4-carboxylic acid ethyl ester]	94.4	3.1	26.6	
O=C(CCC1c2c(F)ccc(F)c2C(=O)N1Cc1ccc(F)cc1)Nc1ccc(C(=O)O)cn1 (centres unmarked) [Compound 20, 6-{3-[4,7-Difluoro-2-(4-fluoro-benzyl)-3-oxo-2,3-dihydro-1H-isoindol-1-yl]-propionylamino}-nicotinic acid]	302	0.203	0.65	

The next lines start with the values.

activation at 50 µM [%]	EC50 [µM]	EC100% [µM]	% Activation @ 5 μM (cell states @ 5 μM instead of the head's 50 μM)	SMILES
342	0.143	0.411		O=C(CCC1c2c(Cl)cccc2C(=O)N1Cc1ccc(F)cc1)Nc1ccccn1 (centres unmarked) [Compound 36, 3-[7-Chloro-2-(4-fluoro-benzyl)-3-oxo-2,3-dihydro-1H-isoindol-1-yl]-N-pyridin-2-yl-propionamide]
142	0.407	4.3		NS(=O)(=O)c1ccc(NC(=O)CCC2c3c(F)cccc3C(=O)N2Cc2ccc(F)cc2)nc1 (centres unmarked) [Compound 34, 3-[7-Fluoro-2-(4-fluoro-benzyl)-3-oxo-2,3-dihydro-1H-isoindol-1-yl]-N-(5-sulfamoyl-pyridin-2-yl)-propionamide]
	0.219	1.2	133 @ 5 μM %	O=C(CCC1c2c(F)cccc2C(=O)N1Cc1ccc(F)cc1)Nc1ccc(C(=O)OCc2ccccc2)cn1 (centres unmarked) [Compound 46, 6-{3-[7-Fluoro-2-(4-fluoro-benzyl)-3-oxo-2,3-dihydro-1H-isoindol-1-yl]-propionylamino}-nicotinic acid benzyl ester]
206	0.433	2.5		O=C(CCC1c2c(Cl)ccc(Cl)c2C(=O)N1Cc1ccc(F)cc1)Nc1ccccn1 (centres unmarked) [Compound 39, 3-[4,7-Dichloro-2-(4-fluoro-benzyl)-3-oxo-2,3-dihydro-1H-isoindol-1-yl]-N-pyridin-2-yl-propionamide]
114	0.42	15		N#Cc1ccc(NC(=O)CCC2c3c(F)cccc3C(=O)N2Cc2ccc(F)cc2)nc1 (centres unmarked) [Compound 47, N-(5-Cyano-pyridin-2-yl)-3-[7-fluoro-2-(4-fluoro-benzyl)-3-oxo-2,3-dihydro-1H-isoindol-1-yl]-propionamide]
